US10301353B2, “Co-crystal of carfilzomib with maleic acid and process for the preparation of pure carfilzomib” (DR. REDDY'S LABORATORIES LIMITED, priority 2014, dated 2019)

Assays:
[1] = storage stability of amorphous carfilzomib; assay type: physicochemical; details: at 2-8° C.
Method: Carfilzomib amorphous form obtained according to the process of the present application is stable at 2-8° C. for extended periods, i.e., more than 3 month.

[2] = system: solid and hematologic tumor cells; details: cited from earlier work
proteasome = details: in animals; cited from earlier work
[3] = system: models of multiple myeloma, hematologic, and solid tumors; details: in animals; cited from earlier work

Compound | stable for extended periods [1] | activity in vitro in tumor cells [2] | proteasome activity in blood and tissue (proteasome) | tumor growth [3]
CC(C)C[C@H](NC(=O)[C@H](CCc1ccccc1)NC(=O)CN1CCOCC1)C(=O)N[C@@H](Cc1ccccc1)C(=O)N[C@@H](CC(C)C)C(=O)[C@@]1(C)CO1 [Carfilzomib amorphous form] | more than 3 month | – | – | –
CC(C)C[C@H](NC(=O)[C@H](CCc1ccccc1)NC(=O)CN1CCOCC1)C(=O)N[C@@H](Cc1ccccc1)C(=O)N[C@@H](CC(C)C)C(=O)[C@@]1(C)CO1 [Carfilzomib, (2S)—N—((S)-1-((S)-4-methyl-1-((R)-2-methyloxiran-2-yl)-1-oxopentan-2-ylcarbamoyl)-2-phenylethyl)-2-((S)-2-(2-morpholinoacetamido)-4-phenylbutanamido)-4-methylpentanamide] | – | antiproliferative and proapoptotic activities | inhibited proteasome activity | delayed tumor growth
